Data from a compilation of properties of binary mixtures (doi:10.1021/je3004904).

Assay: xn = mol fraction of the nth substance listed
Conditions: 101 kPa

## Cn1cc[nH+]c1.[Cl-] + Cl[Al](Cl)Cl
293.15 K, x2 = 0.643
  viscosity: 78.3 mPa·s
293.15 K, x2 = 0.667
  viscosity: 50.8 mPa·s
298.15 K, x2 = 0.643
  electrical conductivity: 0.456 S/m
  viscosity: 59.41 mPa·s
298.15 K, x2 = 0.667
  electrical conductivity: 0.601 S/m
  viscosity: 40.23 mPa·s
303.15 K, x2 = 0.643
  electrical conductivity: 0.553 S/m
  viscosity: 46.88 mPa·s
308.15 K, x2 = 0.643
  electrical conductivity: 0.661 S/m
  viscosity: 38.17 mPa·s
308.15 K, x2 = 0.667
  electrical conductivity: 0.827 S/m
  viscosity: 27.36 mPa·s
313.15 K, x2 = 0.667
  electrical conductivity: 0.961 S/m
  viscosity: 23.28 mPa·s
318.15 K, x2 = 0.643
  electrical conductivity: 0.909 S/m
  viscosity: 27.17 mPa·s
318.15 K, x2 = 0.667
  electrical conductivity: 1.1 S/m
  viscosity: 20.13 mPa·s
323.15 K, x2 = 0.643
  electrical conductivity: 1.05 S/m
  viscosity: 23.58 mPa·s
323.15 K, x2 = 0.667
  electrical conductivity: 1.25 S/m
  viscosity: 17.66 mPa·s
328.15 K, x2 = 0.643
  electrical conductivity: 1.2 S/m
  viscosity: 20.75 mPa·s
328.15 K, x2 = 0.667
  electrical conductivity: 1.4 S/m
  viscosity: 15.67 mPa·s
333.15 K, x2 = 0.643
  electrical conductivity: 1.36 S/m
  viscosity: 18.5 mPa·s
333.15 K, x2 = 0.667
  electrical conductivity: 1.56 S/m
  viscosity: 14.06 mPa·s
338.15 K, x2 = 0.643
  electrical conductivity: 1.53 S/m
  viscosity: 16.67 mPa·s
338.15 K, x2 = 0.667
  electrical conductivity: 1.74 S/m
  viscosity: 12.72 mPa·s
343.15 K, x2 = 0.643
  electrical conductivity: 1.7 S/m
  viscosity: 15.15 mPa·s
343.15 K, x2 = 0.667
  electrical conductivity: 1.92 S/m
  viscosity: 11.61 mPa·s

## [Cl][Al]([Cl])[Cl] + CCCC[n+]1ccn(C)c1.[Cl-]
293.15 K, x1 = 0.5
  viscosity: 41.63 mPa·s
293.15 K, x1 = 0.5238
  viscosity: 38.28 mPa·s
293.15 K, x1 = 0.545
  viscosity: 35.03 mPa·s
293.15 K, x1 = 0.5454
  viscosity: 34.99 mPa·s
293.15 K, x1 = 0.5653
  viscosity: 32.26 mPa·s
293.15 K, x1 = 0.583
  viscosity: 30.37 mPa·s
293.15 K, x1 = 0.5834
  viscosity: 30.34 mPa·s
293.15 K, x1 = 0.6001
  viscosity: 28.34 mPa·s
293.15 K, x1 = 0.615
  viscosity: 26.91 mPa·s
293.15 K, x1 = 0.6154
  viscosity: 26.89 mPa·s
293.15 K, x1 = 0.6296
  viscosity: 25.31 mPa·s
293.15 K, x1 = 0.6429
  viscosity: 24.35 mPa·s
293.15 K, x1 = 0.6551
  viscosity: 23.44 mPa·s
293.15 K, x1 = 0.6667
  viscosity: 22.54 mPa·s
298.15 K, x1 = 0.583
  electrical conductivity: 0.947 S/m
  viscosity: 25.24 mPa·s
298.15 K, x1 = 0.615
  electrical conductivity: 0.931 S/m
  viscosity: 22.59 mPa·s
298.15 K, x1 = 0.643
  electrical conductivity: 0.919 S/m
  viscosity: 20.62 mPa·s
298.15 K, x1 = 0.667
  electrical conductivity: 0.912 S/m
  viscosity: 19.42 mPa·s
303.15 K, x1 = 0.5
  viscosity: 28.33 mPa·s
303.15 K, x1 = 0.545
  electrical conductivity: 1.14 S/m
  viscosity: 24.35 mPa·s
303.15 K, x1 = 0.5454
  viscosity: 24.32 mPa·s
303.15 K, x1 = 0.583
  electrical conductivity: 1.1 S/m
  viscosity: 21.38 mPa·s
303.15 K, x1 = 0.5834
  viscosity: 21.36 mPa·s
303.15 K, x1 = 0.6001
  viscosity: 20.2 mPa·s
303.15 K, x1 = 0.615
  electrical conductivity: 1.07 S/m
  viscosity: 19.34 mPa·s
303.15 K, x1 = 0.6154
  viscosity: 19.33 mPa·s
303.15 K, x1 = 0.6296
  viscosity: 18.29 mPa·s
303.15 K, x1 = 0.6551
  viscosity: 17.1 mPa·s
303.15 K, x1 = 0.6667
  viscosity: 16.73 mPa·s
308.15 K, x1 = 0.545
  electrical conductivity: 1.32 S/m
  viscosity: 20.84 mPa·s
308.15 K, x1 = 0.583
  electrical conductivity: 1.26 S/m
  viscosity: 18.31 mPa·s
308.15 K, x1 = 0.643
  electrical conductivity: 1.21 S/m
  viscosity: 15.39 mPa·s
308.15 K, x1 = 0.667
  electrical conductivity: 1.2 S/m
  viscosity: 14.59 mPa·s
313.15 K, x1 = 0.5
  viscosity: 20.76 mPa·s
313.15 K, x1 = 0.5238
  viscosity: 19.48 mPa·s
313.15 K, x1 = 0.545
  electrical conductivity: 1.51 S/m
  viscosity: 18.1 mPa·s
313.15 K, x1 = 0.5653
  viscosity: 16.92 mPa·s
313.15 K, x1 = 0.583
  electrical conductivity: 1.44 S/m
  viscosity: 16.03 mPa·s
313.15 K, x1 = 0.5834
  viscosity: 16.01 mPa·s
313.15 K, x1 = 0.6001
  viscosity: 15.28 mPa·s
313.15 K, x1 = 0.615
  electrical conductivity: 1.39 S/m
  viscosity: 14.61 mPa·s
313.15 K, x1 = 0.6296
  viscosity: 13.96 mPa·s
313.15 K, x1 = 0.6429
  viscosity: 13.53 mPa·s
313.15 K, x1 = 0.643
  electrical conductivity: 1.36 S/m
  viscosity: 13.54 mPa·s
313.15 K, x1 = 0.6551
  viscosity: 13.12 mPa·s
313.15 K, x1 = 0.6667
  viscosity: 12.87 mPa·s
313.15 K, x1 = 0.667
  electrical conductivity: 1.34 S/m
  viscosity: 12.87 mPa·s
318.15 K, x1 = 0.545
  electrical conductivity: 1.71 S/m
  viscosity: 15.92 mPa·s
318.15 K, x1 = 0.583
  electrical conductivity: 1.63 S/m
  viscosity: 14.15 mPa·s
318.15 K, x1 = 0.615
  electrical conductivity: 1.57 S/m
  viscosity: 12.78 mPa·s
318.15 K, x1 = 0.643
  electrical conductivity: 1.52 S/m
  viscosity: 12.04 mPa·s
323.15 K, x1 = 0.5238
  viscosity: 15.16 mPa·s
323.15 K, x1 = 0.545
  electrical conductivity: 1.93 S/m
  viscosity: 14.15 mPa·s
323.15 K, x1 = 0.5653
  viscosity: 13.29 mPa·s
323.15 K, x1 = 0.583
  electrical conductivity: 1.83 S/m
  viscosity: 12.61 mPa·s
323.15 K, x1 = 0.5834
  viscosity: 12.6 mPa·s
323.15 K, x1 = 0.6001
  viscosity: 12.09 mPa·s
323.15 K, x1 = 0.615
  electrical conductivity: 1.76 S/m
  viscosity: 11.56 mPa·s
323.15 K, x1 = 0.6154
  viscosity: 11.55 mPa·s
323.15 K, x1 = 0.6429
  viscosity: 10.78 mPa·s
323.15 K, x1 = 0.643
  electrical conductivity: 1.69 S/m
  viscosity: 10.8 mPa·s
323.15 K, x1 = 0.6551
  viscosity: 10.48 mPa·s
323.15 K, x1 = 0.6667
  viscosity: 10.17 mPa·s
323.15 K, x1 = 0.667
  electrical conductivity: 1.66 S/m
  viscosity: 10.17 mPa·s
328.15 K, x1 = 0.545
  electrical conductivity: 2.15 S/m
  viscosity: 12.7 mPa·s
328.15 K, x1 = 0.583
  electrical conductivity: 2.04 S/m
  viscosity: 11.34 mPa·s
328.15 K, x1 = 0.615
  electrical conductivity: 1.95 S/m
  viscosity: 10.45 mPa·s
328.15 K, x1 = 0.667
  electrical conductivity: 1.83 S/m
  viscosity: 9.05 mPa·s
333.15 K, x1 = 0.5
  viscosity: 12.95 mPa·s
333.15 K, x1 = 0.545
  electrical conductivity: 2.39 S/m
  viscosity: 11.49 mPa·s
333.15 K, x1 = 0.5454
  viscosity: 11.47 mPa·s
333.15 K, x1 = 0.5653
  viscosity: 10.83 mPa·s
333.15 K, x1 = 0.583
  electrical conductivity: 2.26 S/m
  viscosity: 10.29 mPa·s
333.15 K, x1 = 0.5834
  viscosity: 10.28 mPa·s
333.15 K, x1 = 0.6154
  viscosity: 9.49 mPa·s
333.15 K, x1 = 0.6429
  viscosity: 8.88 mPa·s
333.15 K, x1 = 0.643
  electrical conductivity: 2.07 S/m
  viscosity: 8.88 mPa·s
333.15 K, x1 = 0.6551
  viscosity: 8.63 mPa·s
333.15 K, x1 = 0.6667
  viscosity: 8.23 mPa·s
333.15 K, x1 = 0.667
  electrical conductivity: 2.01 S/m
  viscosity: 8.23 mPa·s
338.15 K, x1 = 0.545
  electrical conductivity: 2.63 S/m
  viscosity: 10.48 mPa·s
338.15 K, x1 = 0.583
  electrical conductivity: 2.49 S/m
  viscosity: 9.4 mPa·s
338.15 K, x1 = 0.615
  electrical conductivity: 2.38 S/m
  viscosity: 8.69 mPa·s
338.15 K, x1 = 0.643
  electrical conductivity: 2.28 S/m
  viscosity: 8.14 mPa·s
338.15 K, x1 = 0.667
  electrical conductivity: 2.2 S/m
  viscosity: 7.43 mPa·s
343.15 K, x1 = 0.5
  viscosity: 10.78 mPa·s
343.15 K, x1 = 0.5238
  viscosity: 10.26 mPa·s
343.15 K, x1 = 0.545
  electrical conductivity: 2.88 S/m
  viscosity: 9.63 mPa·s
343.15 K, x1 = 0.5653
  viscosity: 9.09 mPa·s
343.15 K, x1 = 0.583
  electrical conductivity: 2.73 S/m
  viscosity: 8.64 mPa·s
343.15 K, x1 = 0.6001
  viscosity: 8.34 mPa·s
343.15 K, x1 = 0.615
  electrical conductivity: 2.6 S/m
  viscosity: 8.01 mPa·s
343.15 K, x1 = 0.6154
  viscosity: 8.01 mPa·s
343.15 K, x1 = 0.6296
  viscosity: 7.73 mPa·s
343.15 K, x1 = 0.643
  electrical conductivity: 2.5 S/m
  viscosity: 7.5 mPa·s
343.15 K, x1 = 0.6551
  viscosity: 7.209 mPa·s
343.15 K, x1 = 0.6667
  viscosity: 6.824 mPa·s
343.15 K, x1 = 0.667
  electrical conductivity: 2.4 S/m
  viscosity: 6.824 mPa·s
